Assay results as given in patent publication US7985760B2, “Piperidinetriol derivatives as inhibitors of glycosyceramid synthase” (Actelion Pharmaceuticals Ltd., priority 2002, dated 2011).
Where two headings read alike, the source gives them in different places.

What was measured:
[1] = target: T1, human recombinant GCS expressed in insect cells (Homo sapiens, UniProt Q16739); assay: Inhibition of GCS; assay type: biochemical
T1 construct: made in house; host or cells: insect cells
T1 sequence (Q16739 1-394): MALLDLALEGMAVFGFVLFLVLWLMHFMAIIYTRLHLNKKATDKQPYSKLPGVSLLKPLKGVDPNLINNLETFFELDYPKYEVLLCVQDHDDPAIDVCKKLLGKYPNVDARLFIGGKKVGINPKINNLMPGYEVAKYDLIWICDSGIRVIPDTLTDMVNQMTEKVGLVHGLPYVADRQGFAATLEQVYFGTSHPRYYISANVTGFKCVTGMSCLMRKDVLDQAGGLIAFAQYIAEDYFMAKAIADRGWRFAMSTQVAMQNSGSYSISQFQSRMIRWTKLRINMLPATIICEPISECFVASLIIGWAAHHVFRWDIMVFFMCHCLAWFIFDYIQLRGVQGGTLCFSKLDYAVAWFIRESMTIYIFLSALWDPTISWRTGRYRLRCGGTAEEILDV

[2] = target: T2, non-lysosomal-β-glucocerebrosidase (Homo sapiens, UniProt Q9HCG7); assay: Inhibition of non-lysosomal-β-glucocerebrosidase; assay type: biochemical; conditions: whole cell extracts of MCF7 as enzyme source; 4-MU β-glucoside substrate; pH 5.8
T2 construct: whole cell extracts of MCF7(a human breast carcinoma cell line) was used as the source of the enzyme; endogenous in cells; host or cells: MCF7 whole cell extract
T2 sequence (Q9HCG7 1-927): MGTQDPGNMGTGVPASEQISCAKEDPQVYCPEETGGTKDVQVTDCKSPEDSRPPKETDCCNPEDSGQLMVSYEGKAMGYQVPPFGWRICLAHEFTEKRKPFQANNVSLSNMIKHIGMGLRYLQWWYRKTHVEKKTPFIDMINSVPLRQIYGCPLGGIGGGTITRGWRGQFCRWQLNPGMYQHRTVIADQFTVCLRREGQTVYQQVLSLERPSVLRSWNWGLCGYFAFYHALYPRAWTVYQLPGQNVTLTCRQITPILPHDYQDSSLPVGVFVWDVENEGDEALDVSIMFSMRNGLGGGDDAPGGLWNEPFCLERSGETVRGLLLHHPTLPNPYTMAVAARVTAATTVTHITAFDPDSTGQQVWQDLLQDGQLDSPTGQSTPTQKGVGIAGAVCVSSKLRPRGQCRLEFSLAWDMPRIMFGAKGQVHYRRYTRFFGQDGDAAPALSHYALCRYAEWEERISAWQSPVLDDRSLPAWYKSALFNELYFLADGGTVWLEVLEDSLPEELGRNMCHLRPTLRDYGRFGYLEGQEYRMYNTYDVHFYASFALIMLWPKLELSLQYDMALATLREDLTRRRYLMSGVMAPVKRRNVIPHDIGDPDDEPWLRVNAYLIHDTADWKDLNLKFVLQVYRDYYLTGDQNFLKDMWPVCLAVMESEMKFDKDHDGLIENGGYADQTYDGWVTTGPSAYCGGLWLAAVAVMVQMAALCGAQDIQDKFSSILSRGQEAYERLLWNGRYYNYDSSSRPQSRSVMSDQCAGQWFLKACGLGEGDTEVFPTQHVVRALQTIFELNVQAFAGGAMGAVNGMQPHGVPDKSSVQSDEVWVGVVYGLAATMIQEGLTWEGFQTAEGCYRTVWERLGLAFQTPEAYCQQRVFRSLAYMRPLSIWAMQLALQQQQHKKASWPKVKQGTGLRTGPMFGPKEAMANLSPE

human GCS = target: T3, human GCS (Homo sapiens, UniProt Q16739); assay: Cell-based IC50 for GCS inhibition by measuring glucosylceramide (GlcCer) depletion; conditions: MCF-7 cells cultured for 5-7 days; GlcCer quantified by HPTLC; read-out: Inhibition of GCS Cellular-based (IC50 μM)
T3 construct: Human mammary epithelial cells (MCF-7) were cultured for 5-7 days, with varying concentrations of a compound of the invention; endogenous in cells; host or cells: MCF-7
T3 sequence (Q16739 1-394): T1 sequence (Q16739 1-394)

[3] = human recombinant GCS expressed in insect cells, read-out: Inhibition of GCS (IC50)

SMILES | IC50 [1, 3] [nM] | IC50 [2] [nM] | IC50 (human GCS) [µM] | IC50 [1] [nM]
COc1cc(OCc2ccccc2)ccc1CN1C[C@H](O)[C@@H](O)[C@H](O)[C@@H]1CO [Example 1, 3,4,5-Piperidinetriol, 2-(hydroxymethyl)-1-[[2-methoxy-4-(phenylmethoxy)phenyl]methyl]-, (2S,3R,4R,5S)] | 2700 | 110 | – | –
CN(C)c1ccc(CN2C[C@H](O)[C@@H](O)[C@H](O)[C@@H]2CO)c(F)c1C#N [Example 3, 3,4,5-Piperidinetriol, 1-[(3-cyano-4-dimethylamino-2-fluorophenyl)methyl]-2-(hydroxymethyl)-, (2S,3R,4R,5S)] | 1800 | 750 | – | –
O=C(NCc1ccc(F)cc1)c1ccc(CN2C[C@H](O)[C@@H](O)[C@H](O)[C@@H]2CO)cc1 [Example 6, Benzamide, N-[(4-fluorophenyl)methyl]-4-[[(2S,3R,4R,5S)-3,4,5-trihydroxy-2-(hydroxymethyl)-1-piperldinyl]methyl]-,] | 670 | 69 | – | –
CC(NC(=O)c1ccc(CN2C[C@H](O)[C@@H](O)[C@H](O)[C@@H]2CO)cc1)c1ccccc1 (stereo partly drawn) [Example 7, Benzamide, N-[1-phenylethyl]4-[[(2S,3R,4R,5S)-3,4,5-trihydroxy-2-(hydroxymethyl)-1-piperidinyl]-methyl]-,] | 280 | 84 | – | –
C[C@@H](NC(=O)c1ccc(CN2C[C@H](O)[C@@H](O)[C@H](O)[C@@H]2CO)cc1)c1ccc(F)cc1 [Example 8, Benzamide, N-[1-(R)-(4-fluorophenyl)ethyl]4-[[(2S,3R,4R,5S)-3,4,5-trihydroxy-2-(hydroxymethyl)-1-piperidinyl]methyl]-,] | 490 | 42 | – | –
OC[C@H]1[C@@H](O)[C@H](O)[C@@H](O)CN1Cc1ccc(OCc2ccccc2)c(Cl)c1 [Example 10, 3,4,5-Piperidinetriol, 2-(hydroxymethyl)-1-[[3-chloro-4-(phenylmethoxy)phenyl]methyl]-, (2S,3R,4R,5S)] | 320 | 5 | – | –
OC[C@H]1[C@@H](O)[C@H](O)[C@@H](O)CN1Cc1ccc(OCc2ccccc2)cc1 [Example 11, 3,4,5-Piperidinetriol, 2-(hydroxymethyl)-1-[[4-(phenylmethoxy)phenyl]methyl]-, (2S,3R,4R,5S)] | 210 | 3 | < 0.01 | –
OC[C@H]1[C@@H](O)[C@H](O)[C@@H](O)CN1Cc1ccc(/C=C/c2ccccc2)cc1 [Example 13, 3,4,5-Piperidinetriol, 1-[(4-trans-styrylphenyl)methyl]-2-(hydroxymethyl)-, (2S,3R,4R,5S)] | 290 | 2 | – | –
O=C(c1ccc(CN2C[C@H](O)[C@@H](O)[C@H](O)[C@@H]2CO)cc1)N1CCCc2ccccc21 [Example 14] | 1400 | 19 | – | –
CCN(CC)c1ccc(CN2C[C@H](O)[C@@H](O)[C@H](O)[C@@H]2CO)c(F)c1C#N [Example 18, 3,4,5-Piperidinetriol, 2-(hydroxymethyl)-1-[(3-cyano-4-(diethylamino)-2-fluorophenyl)-methyl]-, (2S,3R,4R,5S)] | 550 | 120 | – | –
OC[C@H]1[C@@H](O)[C@H](O)[C@@H](O)CN1Cc1ccc(Oc2ccccc2)cc1 [Example 19, 3,4,5-Piperidinetriol, 2-(hydroxymethyl)-1-[(4-phenoxyphenyl)methyl]-, (2S,3R,4R,5S)] | 410 | 4 | – | –
OC[C@H]1[C@@H](O)[C@H](O)[C@@H](O)CN1Cc1ccc2c(c1)OCCO2 [Example 20, 3,4,5-Piperidinetriol, 1-[(3,4-ethylenedioxyphenyl)methyl]-2-(hydroxymethyl)-, (2S,3R,4R,5S)] | 2500 | 55 | – | –
O=S(=O)(Nc1ccc(CN2C[C@H](O)[C@@H](O)[C@H](O)[C@@H]2CO)cc1)c1ccccc1 [Example 22, Benzenesulfonamide, N-[4-[[(2S,3S,4R,5S)-3,4,5-trihydroxy-2-(hydroxymethyl)-1-piperidinyl]methyl]-phenyl]-,] | – | 910 | – | 910
